Series [1] has as its system S. enteritidis. As to the kind of experiment: microbe, parasite or virus in culture. It is filed as cell-based. To be noted: Salmonella enterica, MHB, 18 h, 37°C, triplicate; for MBC: colony counting; for MIC: turbidity.
Excerpt: S. aureus and S. enteritidis isolates were obtained from laboratory clinical isolates, and avian pathogenic E. coli was kindly provided by Professor Qingke Kong (College of Veterinary Medicine, Southwest University). Mueller–Hinton broth (MHB; Beijing Land Bridge Technology Co., Ltd., China) was used as bacterial growth media for antimicrobial activity assays, and Luria–Bertani (LB; Qingdao Hope Bio-Technology Co., Ltd., China) agar plates were used for the colony-counting assay. Bacteria were cultured at 37°C for 18 h in MHB or LB agar plates.
Antimicrobial activity of AMPs and antibiotics was performed by the broth microdilution assay as reported previously (Wiegand et al., [2008]). Briefly, bacteria were maintained in MHB medium at 37°C and grown to mid-logarithmic growth phase before being tested. Then, 50 μl of peptides (0–80 μM) and antibiotics (0–40,960 μM) with triplicate were mixed with an equal volume of bacterial suspension (2 × 10^6 CFU/ml) in 96-well plates and incubated for 18 h at 37°C. After incubation, minimum inhibitory concentration (MIC) was determined by the observation of turbidity, and minimum bactericidal concentration (MBC) was determined by colony counting. […] After overnight culture at 37°C, survival bacteria were counted.
In series [2] the test system is E. coli. Kind of series: microbe, parasite or virus in culture. It is filed as cell-based. Conditions: Escherichia coli, 18 h.
Description: (§1) S. aureus and S. enteritidis isolates were obtained from laboratory clinical isolates, and avian pathogenic E. coli was kindly provided by Professor Qingke Kong (College of Veterinary Medicine, Southwest University). […] Bacteria were cultured at 37°C for 18 h in MHB or LB agar plates.
(§2) Briefly, bacteria were maintained in MHB medium at 37°C and grown to mid-logarithmic growth phase before being tested. […] After incubation, minimum inhibitory concentration (MIC) was determined by the observation of turbidity, and minimum bactericidal concentration (MBC) was determined by colony counting. […] After overnight culture at 37°C, survival bacteria were counted.
For series [3], the system named is S. aureus. Kind of series: microbe, parasite or virus in culture. It is filed as cell-based. To be noted: Staphylococcus aureus, 18 h.
Description: as §1, §2
Another series has as its system PK-15 cells. Kind of series: Cytotoxicity, WST-1 assay. It is filed as cell-based. In general terms: Formazan colour is commonly taken as a measure of viable cells.
Another series concerns red blood cells of mice. As to the kind of experiment: Hemolytic activity assay. It is filed as cell-based.
The test system of series [4] is E. coli. As to the kind of experiment: Time-killing curve assay. It is filed as cell-based, Escherichia coli. Conditions: at sub-MBC (lowest concentrations with synergy), followed to 180 min.
Description: (§3) The bacterial suspension was prepared as described above. […] After overnight culture, colony counting was performed.
Series [5] concerns E. coli. Kind of series: SEM analysis of bacterial morphology. It is filed as cell-based, Escherichia coli. To be noted: 1/16 MBC of each agent, 6 h, 37°C, 1 × 10^8 CFU/ml.
Description: After incubation, bacterial suspension was centrifuged and washed with PBS three times. Then, bacterial pellets were fixed with 1.5 ml of 2.5% glutaraldehyde in PBS at 4°C overnight. Finally, samples were sent to the Lilai biomedicine experiment center (Sichuan, China) for SEM analysis.
Series [6] relates to S. aureus. Kind of series: Time-killing curve assay. It is filed as cell-based, Staphylococcus aureus. Conditions: at sub-MBC (lowest concentrations with synergy), followed to 180 min.
Description: as §3
The subject of series [7] is E. coli. It is filed as cell-based, Escherichia coli.
Description: Drug resistance induction of E. coli was performed as previously reported. […] Bacteria from the highest concentration of drug combination were regrown, and MIC of erythromycin was measured, and then bacteria were treated again with the drug combination. The change in MIC was described by normalizing the MIC of the n generation to the MIC of first generation.
In series [8] the test system is E. coli. Kind of series: Motility assay on semisolid agar. It is filed as cell-based, Escherichia coli. Conditions: alone at 1/4 MIC, 18 h.
For series [9], the system named is S. enteritidis. Kind of series: Time-killing curve assay. To be noted: at sub-MBC (lowest concentrations with synergy), followed to 180 min.
Description: as §3

Data on 6 molecules can be found in article PMC9335283 (Frontiers in Microbiology, 2022).

Converted amounts (≈) assume the structure as drawn. Where two headings read alike, the source gives them in different places. Where a SMILES comes first, the peptide text is derived from it.

Description for PK-15 cells: Cells were seeded at a density of 1 × 10^5 cells/well in 48-well plates and cultured overnight before being used for assays described below. For cytotoxicity assay, mice peritoneal macrophages and PK-15 cells were prepared in a 48-well plate as described above and incubated with or without tested compounds for 2 h at 37°C with CO2. After 2 h incubation, cells were washed with a cell culture medium twice and continued to culture for 22 or 46 h. After 24 and 48 h incubation, 150 μl of 10% WST-1 reagent was added according to the protocols of the manufacturer. After 20 min incubation, absorbance was measured at 450 nm with a microplate reader (Bio-Rad, Japan) and was corrected for absorbance at 630 nm. Untreated cells were set as a control. The percent of cell viability (%) was calculated using the following formula: Cell viability (%) =OD450nm of treated sample/OD450nm of control×100%
Description for red blood cells of mice: Murine erythrocytes and peritoneal macrophages were obtained from wild-type (WT) C57BL/6 mice (Chongqing Academy of Chinese Material Medical, China). Briefly, erythrocytes were obtained by collecting blood from the tail vein. […] The hemolytic activities of AMPs and antibiotics were determined as previously described (Song et al., [2020]). In brief, whole mice blood was centrifuged at 1,500 rpm for 5 min at room temperature and then washed three times with phosphate-buffered saline (PBS) to obtain red blood cells (RBCs). Subsequently, 2% RBCs in PBS were prepared. Then, aliquots of 100 μl RBCs were mixed with 100 μl tested compounds in PBS in polypropylene 96-well microtiter plates and incubated for 1 h at 37°C. After incubation, the plate was centrifuged for 5 min at 1,500 rpm and 100 μl supernatant was transferred to a new 96-well plate to determine the absorbance at 570 nm. RBCs in PBS served as negative control while RBCs treated with 1% Triton X-100 in PBS served as a positive control. The percent of hemolysis (%) was calculated using the following formula Hemolysise (%)=(OD570nm of treated sample-OD570nm of negative control)/(OD570nm of positive control-OD570nm of negative control)×100%

`CC1(C)S[C@@H]2[C@H](NC(=O)[C@H](N)c3ccccc3)C(=O)N2[C@H]1C(=O)O` [Ampicillin, ampicillin]: the MBC with S. enteritidis [1] is above 5120 µM; in the series on E. coli [2] it was 160 µM (≈ 55.9 µg/mL); with S. aureus [3] it was 640 µM (≈ 224 µg/mL). Moreover, the figures for the MIC with S. enteritidis [1], in the series on E. coli [2] and against S. aureus [3] were 5120 µM (≈ 1790 µg/mL), 160 µM (≈ 55.9 µg/mL) and 80 µM (≈ 28 µg/mL), respectively.

Regarding `CC[C@H](C)[C@H](NC(=O)CNC(=O)[C@H](C)NC(=O)[C@H](C)NC(=O)[C@@H](NC(=O)[C@@H](NC(=O)[C@H](CC(N)=O)NC(=O)[C@@H](NC(=O)[C@H](C)NC(=O)[C@@H](NC(=O)[C@@H]1CCCN1C(=O)[C@@H](NC(=O)[C@H](CC(C)C)NC(=O)[C@@H]1CCCN1C(=O)[C@H](Cc1c[nH]c2ccccc12)NC(=O)[C@H](Cc1ccccc1)NC(=O)[C@H](CCCNC(=N)N)NC(=O)[C@H](CCCCN)NC(=O)[C@@H](NC(=O)[C@@H](N)CCCNC(=N)N)C(C)C)C(C)C)C(C)C)[C@@H](C)CC)[C@@H](C)O)C(C)C)C(=O)N[C@@H](CC(N)=O)C(=O)N[C@@H](CC(C)C)C(=O)N[C@@H](Cc1ccc(O)cc1)C(=O)N[C@@H](CCCCN)C(=O)N[C@@H](C)C(=O)N[C@H](C(=O)N[C@@H](CCCNC(=N)N)C(=O)N[C@@H](CCCNC(=N)N)C(=O)N[C@@H](CCCCN)C(=O)O)[C@@H](C)CC` [CATH-3] (H-RVKRFWPLVPVAINTVAAGINLYKAIRRK-OH), in the series with PK-15 cells, the “toxicity to PK-15 cells” value is reported as “did not show toxicity”. This molecule also gave a hemolysis with red blood cells of mice (red cells of mouse, 1 h) below 20%.

On to `CC[C@H]1OC(=O)[C@H](C)[C@@H](O[C@H]2C[C@@](C)(OC)[C@@H](O)[C@H](C)O2)[C@H](C)[C@@H](O[C@@H]2O[C@H](C)C[C@H](N(C)C)[C@H]2O)[C@](C)(O)C[C@@H](C)C(=O)[C@H](C)[C@@H](O)[C@]1(C)O` [Erythromycin, erythromycin], for which the “time to kill all bacteria” value with E. coli [4], in the series with S. aureus [6] and with S. enteritidis [9] was above 180 min throughout. The MBC with S. enteritidis [1], with E. coli [2] and in the series on S. aureus [3] was above 5120 µM each time. For the same molecule, the figures for the MIC with S. enteritidis [1], in the series with E. coli [2] and in the series on S. aureus [3] were 80 µM (≈ 58.7 µg/mL), 40 µM (≈ 29.4 µg/mL) and 5120 µM (≈ 3760 µg/mL), respectively. Further, in the series with E. coli [5], the “E. coli cellular morphology by SEM” value is “induced the formation of micelles”. Also, the “MIC of erythromycin increase” value in the series on E. coli [7] is listed as 16 fold. The MIC increase in the series on E. coli [7] ([…], 14th generation, relative to first generation) was 2 fold. Besides, in the series on PK-15 cells, the cell viability is below 30%. The hemolysis in the series on red blood cells of mice was above 95%. In addition, the “effect on bacterial migration distance” value in the series with E. coli [8] was “did not affect bacterial migration distance”.

As to `CN(C)[C@@H]1C(O)=C(C(N)=O)C(=O)[C@@]2(O)C(O)=C3C(=O)c4c(O)cccc4[C@@](C)(O)[C@H]3C[C@@H]12` [Tetracycline, tetracycline], the MBC worked out at 640 µM (≈ 284 µg/mL) in the series on S. enteritidis [1], 10 µM (≈ 4.44 µg/mL) in the series with E. coli [2] and 40 µM (≈ 17.8 µg/mL) against S. aureus [3]. In the series on S. enteritidis [1], this molecule showed an MIC of 40 µM (≈ 17.8 µg/mL).

For the molecule `CNC(C)C1CCC(N)C(OC2C(N)CC(N)C(OC3OCC(C)(O)C(NC)C3O)C2O)O1` (centres unmarked) [Gentamicin, gentamicin], the MBC against S. enteritidis [1] was 5 µM (≈ 2.39 µg/mL); against E. coli [2], 2.5 µM (≈ 1.19 µg/mL); against S. aureus [3], 40 µM (≈ 19.1 µg/mL). Also, the MIC in the series on S. enteritidis [1] came out at 2.5 µM (≈ 1.19 µg/mL); with E. coli [2], 1.25 µM (≈ 0.597 µg/mL); against S. aureus [3] it was 20 µM (≈ 9.55 µg/mL).

For `CC[C@H](C)[C@H](NC(=O)[C@H](CCCCN)NC(=O)[C@H](CCCCN)NC(=O)[C@H](CC(C)C)NC(=O)[C@H](CCCNC(=N)N)NC(=O)[C@H](CCCCN)NC(=O)[C@H](CCCNC(=N)N)NC(=O)[C@@H](NC(=O)[C@H](CCCCN)NC(=O)[C@H](CCCCN)NC(=O)[C@H](CCCNC(=N)N)NC(=O)[C@H](CC(C)C)NC(=O)[C@H](CCCNC(=N)N)NC(=O)[C@H](CCCNC(=N)N)NC(=O)[C@H](Cc1ccccc1)NC(=O)[C@H](CCCNC(=N)N)NC(=O)CN)[C@@H](C)O)C(=O)NCC(=O)N[C@@H](CCCCN)C(=O)N[C@H](C(=O)N[C@@H](CC(C)C)C(=O)N[C@@H](CCCCN)C(=O)N[C@@H](Cc1c[nH]c2ccccc12)C(=O)N[C@H](C(=O)N1CCC[C@H]1C(=O)N1CCC[C@H]1C(=O)N[C@H](C(=O)N[C@H](C(=O)NCC(=O)N[C@@H](CO)C(=O)N[C@H](C(=O)N1CCC[C@H]1C(=O)N[C@@H](CC(C)C)C(=O)NCC(=O)N[C@@H](CS)C(=O)NCC(=O)O)[C@@H](C)CC)C(C)C)[C@@H](C)CC)[C@@H](C)CC)C(C)C` [PMAP-36] (H-GRFRRLRKKTRKRLKKIGKVLKWIPPIVGSIPLGCG-OH), the cell viability in the series with PK-15 cells (2 h) is recorded as below 30%. Also, the hemolysis in the series on red blood cells of mice (red cells of mouse, 1 h) was below 20%.

A word on the cell viability: it is a read-out of living cells in per cent, often relative to untreated cells. Read a high cell viability as better survival.
